From patent publication US9572820B2, “Methods of treating autophagy-associated disorders and related pharmaceutical compositions, diagnostics, screening techniques and kits” (priority 2011, dated 2017) come the findings set out here.

The subject of one assay is BMM. Nature of the assay: Confocal quantification of cells positive for LC3 and IL-1α puncta. The class given is cell-based, murine. Conditions: Atg5+ BMM, LPS+IFN-γ, 90 min EBSS. How it is done:
(A,B) IL-1α (ELISA) released from LPS+IFN-γ stimulated Atg5^fl/fl LysM-Cre+ and Atg5^fl/fl LysM-Cre− BMM in the presence of 50 μg/ml rapamycin (Rap), 10 mM 3-MA, or 100 nM Bafilomycin A1 (Baf A1) after 12 h of stimulation. (C) IL-1α (ELISA) in culture supernatants of cells as in A, treated with calpain inhibitor, ALLN (100 μM). (D-F) Images and quantification of cells positive for LC3-only, IL-1α-only or LC3+IL-1α. Cells, wild type (Atg5+) BMM stimulated with LPS+IFN-γ and incubated for 90 min in EBSS in the absence (D, control) or presence (E, Baf A1) of bafilomycin A1. Cutoff for cells to be considered positive: >6 red or green puncta. Red arrowheads, IL-1α+ LC3− cells; green arrowheads, IL-1α− LC3+ cells; 10 μm.
For confocal microscopy, BMM were stained with mouse anti-GFP (Abeam, 10 μg/ml) to enhance LC3-GFP visualization, rabbit anti-caspase 1 (Santa Cruz Biotechnology), rabbit anti-calpain 1 (Cell Signaling Technology), or hamster anti-IL-1α (eBioscience) followed by secondary antibodies. Pearson's colocalization coefficients were derived using SLIDEBOOK 5.0 (Intelligent Imaging Innovations) applying the SLIDEBOOK 5 default algorithm command ‘AND’. All Pearson's coefficients were derived from three independent experiments with five fields or more per experiment, for a total of 15 fields contributing to the cumulative result.

In the next assay the test system is IL-1β. In words: IL-1β secretion from LPS-pretreated BMMs (ELISA). The format is cell-based, murine. Conditions: nigericin, 100 nM bafilomycin A1, 1 h. How it is done:
FIG. 1X3. induction of autophagy enhances IL-1β secretion. (A) Atg5fl/fl Cre^− and Atg^5fl/fl Cre^+ bone marrow-derived macrophages (BMMs), pretreated overnight with 100 ng/ml LPS, were stimulated for 1 h with the inflammasome agonist nigericin ([…]) with (Starvation; EBSS) or without (Full; full medium) autophagic induction. Cell culture supernatants were assayed for murine IL-1β by ELISA. Data represent mean values±s.d. (nX3); *Po0.05. (B) LPS-pretreated Atg5fl/fl Cre^− and Atg^5fl/fl Cre^+ BMMs were stimulated with […] nigericin for 1 h in OptiMEM and the release of active caspase-1 and IL-1β was determined by immunoblotting. (C) As in (A), assayed for IL-18. Data represent mean values±s.d. (nX3); *Po0.05. (D) LPS-pretreated BMMs were exposed to alum ([…]) for 1 h with or without autophagic induction by starvation. Secreted IL-1β was measured as in (A). Data represent mean values±s.d. (nX3); *Po0.05. (E) LPS-pretreated BMMs were exposed to silica ([…]) for 1 h with or without autophagic induction by starvation. Secreted IL-1β was measured as in (A). Data represent mean values±s.d. (nX3); *Po0.05. (F) BMMs were transfected with scramble (Scr) control siRNA or siRNAs against ASC and NLRP3. After 48 h following transfection, cells were treated overnight with LPS and subjected to nigericin ([…]) and starvation for 1 h. Data represent mean values±s.d. (nX3); *Po0.05. (G) Immunoblot analysis of ASC and NLRP3 knockdowns. (H) BMMs were transfected with scramble
FIG. 2X3 Autophagic pathway progression promotes secretion of inflammasome substrates. (A, B) LPS-pretreated BMMs were treated with […] nigericin (Nig) and 100 nM bafilomycin A1 (Baf) with (Starvation) or without (Full) autophagic induction for 1 h and secreted IL-1β (A) and IL-18 (B) were measured. Data represent mean values+s.d. (nX3); *Po0.05. (C) LPS-pretreated BMMs were treated with […] of silica and 100 nM bafilomycin A1 (Baf) with (Starvation) or without (Full) autophagic induction for 1 h and secreted IL-1β were measured. Data represent mean values±s.d. (nX3); *Po0.05. (D) Colocalization of cathepsin B with the basal autophagic machinery factor LC3 and IL-1b. Fluorescence; LC3 (green, Alexa488), IL-1β (red, Alexa568), and cathepsin B (blue, Alexa633). BMMs from GFP-LC3 knockin mice were treated with LPS and then analysed for immunofluorescence. (E) Colocalization line tracing analysis from images in (D). (F) LPS-pretreated BMMs were treated with […] nigericin and cathepsin B inhibitor CA-074 Me […] , with (Starvation) or without (Full) autophagic induction, for 1 h and secreted IL-1β was measured. […] (G) LPS-pretreated Atg^5fl/fl Cr^+ and Atg^5fl/fl Cre^− BMMs were stimulated with […] nigericin for 1 h in OptiMEM and release of cathepsin B was determined by immunoblotting. […]
On the technique in general: ELISA stands for enzyme-linked immunosorbent assay.

For `CO/C1=C\C(C)=C\[C@@H](C)[C@@H](O)[C@@H](C)C/C(C)=C/C=C/[C@H](OC)[C@@H]([C@@H](C)[C@@H](O)[C@H](C)[C@@]2(O)C[C@@H](O)[C@H](C)[C@@H](C(C)C)O2)OC1=O` [bafilomycin A1], in the assay with BMM, the “number of cells positive for both IL-1α and LC3” value is given as “increased”. Further, the results for the IL-1β secretion result in the assay with IL-1β (basal autophagy only (full medium)) and with IL-1β (starvation) were “no change” and “decreased IL-1β secretion”, respectively.
